Assay results reported in US10112978B2, “Peptide and use thereof” (OSAKA UNIVERSITY, priority 2014, dated 2018).
Ends that are not written are not given here.

Columns and labels:
[1] = system: THP-1 cells; experiment: CD86 and CD54 expression in THP-1 cells (flow cytometry, RFI); type: cell-based, human; details: overnight culture, relative fluorescence intensity
Protocol: THP-1 cells were seeded at a density of 2.0×10^5 cells/mL in 50 mL of RPMI1640 medium containing 10% FBS and 0.05 mM mercaptoethanol in a 75-cm^2 flask, and precultured for 48 hours.
The precultured THP-1 cells were harvested by centrifugation and suspended at 2.0×10^6 cells/mL in RPMI1640 medium containing 10% FBS and 0.05 mM mercaptoethanol, and the cell suspension was added to a 24-well plate at 500 μL/well. Test peptides were separately dissolved in the same medium as above, and 500 μL of each of the solutions was added to separate wells containing the cell suspension.
After overnight culture, the cells were harvested by centrifugation and washed twice with PBS containing 0.1% BSA (FACS buffer). The cells were then dispersed in 600 μL of FACS buffer containing 0.01% human γ-globulin solution (Sigma, G2388), and incubated at 4° C. for 10 minutes for blocking of Fc receptors.
After that, the cell suspension was divided into three 180-μL aliquots in 1.5-mL tubes, the tubes were centrifuged, and the cell pellets were prepared for the reaction with antibodies. To the cell pellets, FITC-labeled antibody solutions separately diluted to appropriate concentrations in FACS buffer were added in a volume of 50 μL, and incubation was performed at 4° C. for 30 minutes. The antibodies used were CD86 antibody (Pharmingen; Cat#555657), CD54 antibody (Dako; Cat# F7143) and isotype control (Mouse IgG) antibody (Dako; Cat#X0927). After the 30-minute incubation, the cells were harvested by centrifugation and washed twice with FACS buffer. The cells harvested by centrifugation were dispersed in 200 μL of FACS buffer containing 0.625 μg/mL propidium iodide, and the expression levels of the cell surface antigens on 1×10^4 viable cells were measured by flow cytometry. Forward and side scatter gating was not used for the analysis, and the relative fluorescence intensity (RFI) was calculated from the measured mean fluorescence intensities (MFI) by the following formula. […]
When the viability of the non-treated control cells (vehicle treatment cells) was 90% or more, the test was considered valid. In the case where the cell viability at a particular sample concentration used in the test was lower than 50%, the data of the CD54 level at the concentration was excluded from the evaluation.

[2] = system: Human hair follicle dermal papilla cells; experiment: Production of growth factors (KGF, HGF, VEGF) by hair follicle dermal papilla cells (ELISA); type: cell-based; details: 5 days
Protocol: Human hair follicle dermal papilla cells in DMEM medium containing 10% FBS were seeded at 3×10^4 cells/well on a 24-well plate and cultured in a CO2 incubator overnight. On the following day, the medium was removed, test peptide solutions in DMEM medium containing 1% FBS were added to the plate, and the cells were cultured in a CO2 incubator for 5 days. The culture supernatant was harvested, and the KGF, HGF and VEGF concentrations in the culture supernatant were measured by ELISA.
In this experiment, OSK-1 and AAP-11 were used as the test peptides, and the concentrations of KGF, HGF and VEGF were measured in the same manner as in Example 9.

Substance | expression of CD54 [1] | expression of CD86 [1] | production of the growth factors (KGF, HGF and VEGF concentrations in the culture supernatant) [2]
ELKLIFLHRLKRLR [AAP-3, C-terminal KRLKRK of OSK-1 deleted] | considerably less active | considerably less active | less effective than OSK-1
ELKLIFLHRLKRLRKR [AAP-2, C-terminal LKRK of OSK-1 deleted] | considerably less active | considerably less active | less effective than OSK-1
FLHRLKRLRKRL [AAP-11] | no considerable reduction in the activity was observed | no considerable reduction in the activity was observed | promoted the production of the indicated growth factors in a concentration dependent manner
HRLKRLRKRLKRK [AAP-12, seven N-terminal amino acids of OSK-1 deleted] | considerably less active than OSK-1 | considerably less active than OSK-1 | –
LIFLHRLKRLRKRL [AAP-6] | no considerable reduction in the activity was observed | no considerable reduction in the activity was observed | –
MLKLIFLHRLKRMRKRLdKRK (MLKLIFLHRLKRMRKRLKRK; not fully specified (residues 17, 18)) [SR-07, reference compound] | OSK-1 was more highly active for inducing CD54 expression than SR-07 and SR-08 | – | –
LKLIFLHRLKRMRKRLdKRK (LKLIFLHRLKRMRKRLKRK; not fully specified (residues 16, 17)) [SR-08, reference compound] | OSK-1 was more highly active for inducing CD54 expression than SR-07 and SR-08 | – | –
